Data as given in patent publication US20100092443A1, “NOVEL COMBINATIONS OF NITROGENATED HETEROCYCLIC ANTIBACTERIAL COMPOUNDS WITH OTHER ANTIBACTERIAL COMPOUNDS AND THE USE OF SAME AS DRUGS” (priority 2008, published 2010).
Structures can show the parent of a compound that is named as a salt.

Key:
Format in all cases: cell-based
Pseudomonas aeruginosa = experiment: MIC, dilutions in liquid medium, alone and combined with NXL105
Experimental: (§1) In vitro activity, method of dilutions in liquid medium:
A series of test 96-well microtiter plates are prepared in which the same quantity of sterile nutritive medium is distributed. Increasing quantities of the compound to be studied, namely the antibacterial compound alone and the inventive combination with the compound of formula (I) of example 1, are distributed in each plate in the respective proportions 2:1 and 4:1, and then each plate is inoculated with a bacterial strain of Pseudomonas aeruginosa. After 24 h of incubation in a 37° C. oven, growth inhibition is evaluated by transillumination, which makes it possible to determine the minimum inhibitory concentrations (MICS) expressed in μg/ml.

E. coli = experiment: microbe, parasite or virus in culture
Experimental: as §1
(§2) A series of test 96-well microtiter plates are prepared in which the same quantity of sterile nutritive medium is distributed. […] After 24 h of incubation in a 37° C. oven, growth inhibition is evaluated by transillumination, which makes it possible to determine the minimum inhibitory concentrations (MICS) expressed in μg/ml.

E. cloacae = experiment: MIC, dilutions in liquid medium, alone and combined with NXL105
Experimental: as §1, §2

K. pneumoniae = experiment: as above
Experimental: as §1, §2

K. oxytoca = experiment: as above
C. freundii = experiment: as above

Q: For `Cn1ncc2c1[C@@H](CN)N1C[C@H]2N(OS(=O)(=O)O)C1=O` (relative stereo) [NXL105, Sodium and Trifluoroacetate Salts of trans 8-(aminomethyl)-4,8-dihydro-1-methyl-5-(sulphooxy)-4,7-methano-7H-pyrazolo[3,4-e][1,3]diazepin-6(5H)-one], which MIC (Pseudomonas aeruginosa; P. aeruginosa 391HG2) is on record?
A: 1.000 µg/mL

Q: What about the MIC (Pseudomonas aeruginosa; P. aeruginosa 391HG21) of the same compound?
A: 0.500 µg/mL

Q: What about the MIC (Pseudomonas aeruginosa; P. aeruginosa 391HG38) of the same compound?
A: 32.000 µg/mL

Q: What about the MIC (Pseudomonas aeruginosa; P. aeruginosa 391HG39) of the same compound?
A: 4.000 µg/mL

Q: What about the MIC (Pseudomonas aeruginosa; P. aeruginosa 391HG58) of the same compound?
A: 1.000 µg/mL

Q: What about the MIC (Pseudomonas aeruginosa; P. aeruginosa 391HG118) of the same compound?
A: 0.125 µg/mL

Q: And the MIC (Pseudomonas aeruginosa; P. aeruginosa 391HG123)?
A: >32 µg/mL

Q: What about the MIC (Pseudomonas aeruginosa; P. aeruginosa 391HG158) of the same compound?
A: 32.000 µg/mL

Q: What about the MIC (Pseudomonas aeruginosa; P. aeruginosa 391HG271) of the same compound?
A: 32.000 µg/mL

Q: And the MIC (Pseudomonas aeruginosa; P. aeruginosa 391HG329)?
A: 2.000 µg/mL

Q: What about the MIC (Pseudomonas aeruginosa; P. aeruginosa 391K767) of the same compound?
A: 1.000 µg/mL

Q: What about the MIC (Pseudomonas aeruginosa; P. aeruginosa 391K1455) of the same compound?
A: 2.000 µg/mL

Q: What about the MIC (Pseudomonas aeruginosa; P. aeruginosa 391K1523) of the same compound?
A: 2.000 µg/mL

Q: And the MIC (Pseudomonas aeruginosa; P. aeruginosa 391K1525)?
A: 4.000 µg/mL

Q: What about the MIC (Pseudomonas aeruginosa; P. aeruginosa 391K1536) of the same compound?
A: 2.000 µg/mL

Q: And the MIC (Pseudomonas aeruginosa; P. aeruginosa 391K2376)?
A: 2.000 µg/mL

Q: What about the MIC (Pseudomonas aeruginosa; P. aeruginosa 391K2379) of the same compound?
A: 4.000 µg/mL

Q: And the MIC (Pseudomonas aeruginosa; P. aeruginosa 391K2415)?
A: 2.000 µg/mL

Q: And the MIC (Pseudomonas aeruginosa; P. aeruginosa 391KB9)?
A: 0.250 µg/mL

Q: What about the MIC (Pseudomonas aeruginosa; P. aeruginosa 391KB14) of the same compound?
A: 1.000 µg/mL

Q: And the MIC (Pseudomonas aeruginosa; P. aeruginosa 391KB21)?
A: 2.000 µg/mL

Q: And the MIC (Pseudomonas aeruginosa; P. aeruginosa 391KB33)?
A: 0.500 µg/mL

Q: And the MIC (Pseudomonas aeruginosa; P. aeruginosa 391KB38)?
A: 1.000 µg/mL

Q: And the MIC (Pseudomonas aeruginosa; P. aeruginosa 391KB62)?
A: 4.000 µg/mL

Q: What about the MIC (Pseudomonas aeruginosa; P. aeruginosa 391KB68) of the same compound?
A: 0.500 µg/mL

Q: What about the MIC (Pseudomonas aeruginosa; P. aeruginosa 391KB90) of the same compound?
A: 8.000 µg/mL

Q: And the MIC (Pseudomonas aeruginosa; P. aeruginosa 391KB91)?
A: 0.500 µg/mL

Q: What about the MIC (Pseudomonas aeruginosa; P. aeruginosa 391KB99) of the same compound?
A: 0.500 µg/mL

Q: And the MIC (Pseudomonas aeruginosa; P. aeruginosa 391KB103)?
A: 0.500 µg/mL

Q: And the MIC (Pseudomonas aeruginosa; P. aeruginosa 391KB105)?
A: 1.000 µg/mL

Q: What about the MIC (Pseudomonas aeruginosa; P. aeruginosa 391KB106) of the same compound?
A: 2.000 µg/mL

Q: What about the MIC (Pseudomonas aeruginosa; P. aeruginosa 391KB107) of the same compound?
A: 1.000 µg/mL

Q: And the MIC (Pseudomonas aeruginosa; P. aeruginosa 391KB114)?
A: 4.000 µg/mL

Q: And the MIC (Pseudomonas aeruginosa; P. aeruginosa 391KB127)?
A: 0.500 µg/mL

Q: And the MIC (Pseudomonas aeruginosa; P. aeruginosa 391KB135)?
A: 1.000 µg/mL

Q: And the MIC (Pseudomonas aeruginosa; P. aeruginosa 391KB136)?
A: 0.500 µg/mL

Q: And the MIC (Pseudomonas aeruginosa; P. aeruginosa 391KB137)?
A: 0.500 µg/mL

Q: What about the MIC (Pseudomonas aeruginosa; P. aeruginosa 391KB138) of the same compound?
A: 0.500 µg/mL

Q: And the MIC (Pseudomonas aeruginosa; P. aeruginosa 391KB139)?
A: 2.000 µg/mL

Q: And the MIC (Pseudomonas aeruginosa; P. aeruginosa 391KB140)?
A: 2.000 µg/mL

Q: What about the MIC (Pseudomonas aeruginosa; P. aeruginosa 391KB141) of the same compound?
A: 4.000 µg/mL

Q: And the MIC (Pseudomonas aeruginosa; P. aeruginosa 391KB142)?
A: 1.000 µg/mL

Q: What about the MIC (Pseudomonas aeruginosa; P. aeruginosa 391KB143) of the same compound?
A: 0.500 µg/mL

Q: What about the MIC (Pseudomonas aeruginosa; P. aeruginosa 391KB144) of the same compound?
A: 16.000 µg/mL

Q: What about the MIC (Pseudomonas aeruginosa; P. aeruginosa 391QBR2) of the same compound?
A: >32 µg/mL

Q: And the MIC (Pseudomonas aeruginosa; P. aeruginosa 391QBR3)?
A: 2.000 µg/mL

Q: And the MIC (Pseudomonas aeruginosa; P. aeruginosa 391QBR4)?
A: 2.000 µg/mL

Q: And the MIC (Pseudomonas aeruginosa; P. aeruginosa 391QBR5)?
A: 1.000 µg/mL

Q: And the MIC (Pseudomonas aeruginosa; P. aeruginosa 391QBR7)?
A: 2.000 µg/mL

Q: What about the MIC (Pseudomonas aeruginosa; P. aeruginosa 391QBR8) of the same compound?
A: 2.000 µg/mL

Q: And the MIC (Pseudomonas aeruginosa; P. aeruginosa 391QBR9)?
A: 2.000 µg/mL

Q: What about the MIC (Pseudomonas aeruginosa; P. aeruginosa 391QBR10) of the same compound?
A: 4.000 µg/mL

Q: And the MIC (Pseudomonas aeruginosa; P. aeruginosa ATCC 27853)?
A: 0.060 µg/mL

Q: What about the MIC (Pseudomonas aeruginosa; P. aeruginosa C3719) of the same compound?
A: >32 µg/mL

Q: What about the MIC (Pseudomonas aeruginosa; P. aeruginosa PA2192) of the same compound?
A: 0.125 µg/mL

Q: What about the MIC (E. coli; E. coli 2138, KPC-2 + TEM-1) of the same compound?
A: >32 µg/mL

Q: What about the MIC (E. coli; E. coli (no alias), CTX-M-15 + TEM-1 + OXA-1) of the same compound?
A: >32 µg/mL

Q: And the MIC (E. coli; E. coli (no alias), Cephalosporinase)?
A: >32 µg/mL

Q: What about the MIC (E. coli; E. coli (no alias), SHV-4) of the same compound?
A: >32 µg/mL

Q: What about the MIC (E. coli; E. coli (no alias), TEM-3) of the same compound?
A: >32 µg/mL

Q: What about the MIC (E. coli; E. coli IND, VEB-1 + CMY-2) of the same compound?
A: 16 µg/mL

Q: What about the MIC (E. coli; E. coli TN06, CTX-M-2 + TEM-1) of the same compound?
A: 32 µg/mL

Q: And the MIC (E. coli; E. coli TN13, CTX-M-14 + CMY-2 + TEM-1)?
A: 32 µg/mL

Q: And the MIC (E. coli; E. coli Tunisie clone E4, CTX-M-16 + TEM-1)?
A: >32 µg/mL

Q: And the MIC (E. cloacae; E. cloacae 7506, KPC-2 + TEM-1 + KLUC-2)?
A: 32 µg/mL

Q: And the MIC (E. cloacae; E. cloacae (no alias), AmpC)?
A: 32 µg/mL

Q: And the MIC (E. cloacae; E. cloacae, AmpC)?
A: >32 µg/mL

Q: What about the MIC (K. pneumoniae; K. pneumoniae 26, SHV-5) of the same compound?
A: 32 µg/mL

Q: And the MIC (K. pneumoniae; K. pneumoniae 60, SHV-2 + TEM-2 + PER)?
A: 32 µg/mL

Q: What about the MIC (K. pneumoniae; K. pneumoniae 157, SHV-5 + TEM-26) of the same compound?
A: >32 µg/mL

Q: What about the MIC (K. pneumoniae; K. pneumoniae 181, SHV-5 + TEM-10) of the same compound?
A: >32 µg/mL

Q: And the MIC (K. pneumoniae; K. pneumoniae 236, SHV-5 + TEM-10)?
A: >32 µg/mL

Q: What about the MIC (K. pneumoniae; K. pneumoniae 238, SHV-2 + TEM-12 + CTX-M-2) of the same compound?
A: >32 µg/mL

Q: What about the MIC (K. pneumoniae; K. pneumoniae 243, SHV-5 + TEM-63) of the same compound?
A: >32 µg/mL

Q: What about the MIC (K. pneumoniae; K. pneumoniae 253, SHV-2 + TEM-12 + CTX-M-2) of the same compound?
A: >32 µg/mL

Q: What about the MIC (K. pneumoniae; K. pneumoniae 427, SHV-1 + TEM-1B + CTX-M-3) of the same compound?
A: >32 µg/mL

Q: What about the MIC (K. pneumoniae; K. pneumoniae 441, SHV-1 + TEM-2 + PER) of the same compound?
A: >32 µg/mL

Q: And the MIC (K. pneumoniae; K. pneumoniae 444, SHV-5 + TEM-2 + PER)?
A: >32 µg/mL

Q: What about the MIC (K. pneumoniae; K. pneumoniae 449, SHV-1 + TEM-2 + PER) of the same compound?
A: 32 µg/mL

Q: And the MIC (K. pneumoniae; K. pneumoniae 465, TEM-1B + CTX-M-2)?
A: >32 µg/mL

Q: And the MIC (K. pneumoniae; K. pneumoniae 1734, FOX-3 + TEM-1)?
A: >32 µg/mL

Q: And the MIC (K. pneumoniae; K. pneumoniae 9701, CMY-4 + TEM-1)?
A: >32 µg/mL

Q: What about the MIC (K. pneumoniae; K. pneumoniae ATCC 700603, SHV-18) of the same compound?
A: >32 µg/mL

Q: What about the MIC (K. pneumoniae; K. pneumoniae CL5761, KPC-3) of the same compound?
A: >32 µg/mL

Q: And the MIC (K. pneumoniae; K. pneumoniae CL5762, KPC-3)?
A: >32 µg/mL

Q: What about the MIC (K. pneumoniae; K. pneumoniae CL5763, KPC-3) of the same compound?
A: >32 µg/mL

Q: What about the MIC (K. pneumoniae; K. pneumoniae KOL, MOX-2 + SHV-5 + TEM-1) of the same compound?
A: >32 µg/mL

Q: And the MIC (K. pneumoniae; K. pneumoniae KP04, CTX-M-14)?
A: >32 µg/mL

Q: And the MIC (K. pneumoniae; K. pneumoniae Patient 1BHR, VIM-4 + CTX-M-15 = CMY-4 + TEM-1)?
A: 16 µg/mL

Q: And the MIC (K. pneumoniae; K. pneumoniae Patient F, VIM-1 + SHV-5)?
A: >32 µg/mL

Q: What about the MIC (K. pneumoniae; K. pneumoniae SLK54, ACC-1 + TEM-1) of the same compound?
A: >32 µg/mL

Q: And the MIC (K. pneumoniae; K. pneumoniae TN58467, DHA-1 + SHV-2a + TEM-1)?
A: >32 µg/mL

Q: And the MIC (K. pneumoniae; K. pneumoniae Tunisie clone K1, CTX-M-16 + OXA-1)?
A: >32 µg/mL

Q: What about the MIC (K. pneumoniae; K. pneumoniae Tunisie clone K4, CTX-M-15 + TEM-1 + OXA-1) of the same compound?
A: 16 µg/mL

Q: And the MIC (K. pneumoniae; K. pneumoniae VA8, KPC-3)?
A: >32 µg/mL

Q: And the MIC (K. pneumoniae; K. pneumoniae VAKP, KPC-2)?
A: >32 µg/mL

Q: What about the MIC (K. pneumoniae; K. pneumoniae YC, KPC-2) of the same compound?
A: >32 µg/mL

Q: What about the MIC (K. oxytoca; K. oxytoca 1431, TEM-129) of the same compound?
A: 32 µg/mL

Q: What about the MIC (K. oxytoca; K. oxytoca 16944, OXY-2, TEM-1) of the same compound?
A: >32 µg/mL

Q: What about the MIC (C. freundii; C. freundii (no alias), AmpC + TEM-1) of the same compound?
A: 16 µg/mL

Q: What about the MIC (C. freundii; C. freundii (no alias, table row r121), AmpC) of the same compound?
A: 16 µg/mL

Q: What about the MIC (C. freundii; C. freundii (no alias, table row r122), AmpC) of the same compound?
A: 32 µg/mL

Q: What about the MIC (C. freundii; C. freundii (no alias, table row r123), AmpC) of the same compound?
A: >32 µg/mL

Q: What about the MIC (C. freundii; C. freundii (no alias, table row r125), AmpC) of the same compound?
A: 32 µg/mL
